Test results from patent publication EP2149374A1 (WORLD-TRADE IMPORT-EXPORT, WTIE, A.G., priority 2007, dated 2008).

Key:
E. coli = experiment: Comparative clinical study: urocultive by antibiogram, urine counts (colony-forming units); assay type: in vivo, Escherichia coli; conditions: n=50 per group
From the text: (§1) Urinary tract infection constitutes the most frequent urologic disease and is one of the most common infections in human beings. Urinary infection encompasses several clinical conditions, so the proper study thereof is very important for a suitable diagnose and treatment, in view of the extensive and not inconsiderable hospital and healthcare expenses these involve.
(§2) Inclusion criteria were the following: • - Patients from 18 to 75 years of age. • - Patients having a non-complex acute urinary infection diagnose. • > 12 leukocytes per mm3 in urine sediments. • - Urine counts of > 100,000 UFC/ml. • - Urine pH over 6.0. • - Microorganism identification.
(§3) Only twice a day for 5 days,- group 2, received Vitamin C 100 mg.
Table 4. Urine Counts in UFC/ml. (Colony-Forming Units).

[1] = Comparative clinical study: overall healing process (conclusions); assay type: in vivo; conditions: patients with acute non-complex urinary tract infection, 5 days of treatment
Method: as §1, §3

[2] = Comparative clinical study: general urine examination (leukocytes in urine sediments, urine pH); assay type: in vivo, patients; conditions: n=50 per group
From the text: as §1, §2, §3
General urine examination determined the color, appearance and density thereof, as well as the pH, Proteins, Glucose, Ketones, Blood, Bilirubin, Urobilinogen, Nitrites, Density and Leukocytes. […] Table 2. Leukocytes per mm3 in baseline urine sediments and up to Day 5 of the treatment.

Q: With `O=C1O[C@H]([C@@H](O)CO)C(O)=C1O` [Vitamin C, Ascorbic Acid] as the compound, how does the “UFC/ml (Day 1)” value (E. coli; baseline urine counts (Colony-Forming Units), before treatment) read?
A: The value was >100,000/ml. UFC/ml.

Q: And the “UFC/ml Day 5” value (E. coli; urine counts (Colony-Forming Units), Day 5 of the treatment, twice a day for 5 days)?
A: Its value is 90.000/ml. UFC/ml.

Q: What about the healing process [1] of the same compound?
A: Its healing process is “not sufficient by itself to achieve a healing process”.

Q: And the “pH (Day 1)” value ([2]; baseline urine pH, before treatment)?
A: Its value is 7.6.

Q: And the “Leukocytes (Day 1)” value ([2]; baseline urine sediments, before treatment)?
A: Its value is > 13 per mm3.

Q: What about the “pH (Day 5)” value ([2]; urine pH, Day 5 of the treatment, twice a day for 5 days) of the same compound?
A: The value was 5.0.

Q: And the “Leukocytes Day 5” value ([2]; urine sediments, Day 5 of the treatment, twice a day for 5 days)?
A: The value was < 10 per mm3.
